ChEMBL document CHEMBL2074316, “Multidrug resistance protein-mediated transport of chlorambucil and melphalan conjugated to glutathione” (Br J Cancer, 1998)

Target: Multidrug resistance-associated protein 1 (Homo sapiens, UniProt P33527)
Test: TP_TRANSPORTER: uptake in membrane vesicle from MRP1-expressing HeLa cells
Format: functional, cell membranes

Multidrug resistance-associated protein 1, sequence (P33527 whole entry): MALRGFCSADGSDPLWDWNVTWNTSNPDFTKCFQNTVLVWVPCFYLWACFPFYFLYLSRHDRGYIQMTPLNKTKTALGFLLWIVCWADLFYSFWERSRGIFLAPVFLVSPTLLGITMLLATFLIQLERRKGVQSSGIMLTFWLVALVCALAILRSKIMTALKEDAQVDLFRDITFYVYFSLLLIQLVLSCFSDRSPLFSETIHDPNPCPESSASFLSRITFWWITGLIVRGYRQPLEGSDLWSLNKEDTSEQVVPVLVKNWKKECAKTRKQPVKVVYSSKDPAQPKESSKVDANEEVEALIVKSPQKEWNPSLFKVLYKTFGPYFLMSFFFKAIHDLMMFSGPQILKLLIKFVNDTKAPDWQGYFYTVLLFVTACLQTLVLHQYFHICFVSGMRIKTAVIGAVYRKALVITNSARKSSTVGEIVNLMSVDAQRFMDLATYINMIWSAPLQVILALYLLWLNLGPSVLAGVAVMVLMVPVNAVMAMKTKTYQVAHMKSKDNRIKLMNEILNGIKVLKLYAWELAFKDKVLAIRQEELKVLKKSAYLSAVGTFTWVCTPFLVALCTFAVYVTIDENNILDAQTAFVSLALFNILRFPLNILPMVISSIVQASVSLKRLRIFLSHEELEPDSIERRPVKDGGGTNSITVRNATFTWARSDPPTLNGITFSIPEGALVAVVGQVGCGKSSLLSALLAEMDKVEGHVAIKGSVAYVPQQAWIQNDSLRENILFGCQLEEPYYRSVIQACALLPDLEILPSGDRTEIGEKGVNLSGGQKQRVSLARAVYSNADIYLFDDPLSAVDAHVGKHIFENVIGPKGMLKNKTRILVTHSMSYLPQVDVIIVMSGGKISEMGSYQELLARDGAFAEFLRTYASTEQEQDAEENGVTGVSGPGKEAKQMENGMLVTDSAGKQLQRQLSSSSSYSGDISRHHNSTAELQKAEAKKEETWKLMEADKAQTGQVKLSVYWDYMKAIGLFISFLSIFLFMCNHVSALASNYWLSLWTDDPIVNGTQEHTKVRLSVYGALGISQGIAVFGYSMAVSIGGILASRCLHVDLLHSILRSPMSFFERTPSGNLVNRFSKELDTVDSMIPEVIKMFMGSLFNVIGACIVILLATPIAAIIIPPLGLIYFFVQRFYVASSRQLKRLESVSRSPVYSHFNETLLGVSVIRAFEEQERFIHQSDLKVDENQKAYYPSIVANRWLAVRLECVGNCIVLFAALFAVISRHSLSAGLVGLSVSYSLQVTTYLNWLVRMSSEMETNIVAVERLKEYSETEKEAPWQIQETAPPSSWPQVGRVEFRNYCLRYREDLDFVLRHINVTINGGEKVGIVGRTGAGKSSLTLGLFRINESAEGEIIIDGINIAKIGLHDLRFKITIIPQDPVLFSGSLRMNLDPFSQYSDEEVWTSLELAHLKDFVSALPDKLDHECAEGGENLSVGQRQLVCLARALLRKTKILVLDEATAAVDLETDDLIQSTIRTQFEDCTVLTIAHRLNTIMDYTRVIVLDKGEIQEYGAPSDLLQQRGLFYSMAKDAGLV

NC(CCC(=O)NC(CSCCN(CCO)c1ccc(CCCC(=O)O)cc1)C(=O)NCC(=O)O)C(=O)O (configuration not stated) [MONOHYDROXY MONOGLUTATHIONYL CHLORAMBUCIL]
Activity: substrate [+]

C=C(NCC(=O)O)[C@H](CSCCN(CCSC[C@H](NC(=O)CC[C@H](N)C(=O)O)C(=O)NCC(=O)O)c1ccc(CCCC(=O)O)cc1)NC(=O)CC[C@H](N)C(=O)O [BISGLUTATHIONYL CHLORAMBUCIL]
Activity: substrate [+]
